In PubChem BioAssay AID1259407 (Chemical Carcinogenesis Research Information System (CCRIS), 2018) one finds mutagenic call data, which are given here for three compounds.

The test system of the data set is CCRIS mutagenicity, Ames/micronucleus/aberration tests. Description: CCRIS mutagenicity studies.
Setting [1] is: Test System: AMES SALMONELLA TYPHIMURIUM, Strain/Indicator: TA98, Metabolic Activation: NONE, Method: STANDARD PLATE.

Activity calls are given as the source filed them. How the calls were made is not given here.

With `O=[N+]([O-])c1ccc(Cl)c(Cl)c1`, the mutagenic call by setting is: (End Point: IN VITRO CHROMOSOMAL ABERRATIONS, Test System: HUMAN PERIPHERAL LYMPHOCYTES, Metabolic Activation: NONE) “inactive; negative”; (End Point: In vitro chromosomal aberrations, Test System: Chinese hamster lung (CHL/IU) cells, Metabolic Activation: Rat, Liver, S9, Phenobarbital and 5,6-benzoflavone) “active; positive (structural changes). precipitation observed in culture medium at 0.16”; (Test System: AMES SALMONELLA TYPHIMURIUM, Strain/Indicator: TA98, Metabolic Activation: NONE, Method: PREINCUBATION) “inactive; negative”; under setting [1], “inactive; negative”; (Test System: AMES SALMONELLA TYPHIMURIUM, Strain/Indicator: TA98, Metabolic Activation: RAT LIVER S-9, AROCLOR 1254 (10%), Method: STANDARD PLATE) “inactive; negative”; (Test System: AMES SALMONELLA TYPHIMURIUM, Strain/Indicator: TA98, Metabolic Activation: RAT, LIVER, S-9, KANECHLOR 500, Method: PREINCUBATION) “inactive; negative”. For the same compound, the mutagenic call runs as follows: (Test System: AMES SALMONELLA TYPHIMURIUM, Strain/Indicator: TA100, Metabolic Activation: NONE, Method: PREINCUBATION) “active; positive”; (Test System: AMES SALMONELLA TYPHIMURIUM, Strain/Indicator: TA100, Metabolic Activation: NONE, Method: STANDARD PLATE) “inactive; negative”; (Test System: AMES SALMONELLA TYPHIMURIUM, Strain/Indicator: TA100, Metabolic Activation: RAT, LIVER, S-9, KANECHLOR 500, Method: PREINCUBATION) “active; positive”; (Test System: Ames Salmonella typhimurium, Strain/Indicator: TA98, Metabolic Activation: None, Method: Preincubaton) “inactive; negative”; (Test System: Ames Salmonella typhimurium, Strain/Indicator: TA98, Metabolic Activation: Rat, Liver, S9, Sodium phenobarbital and 5,6-benzoflavone (10%), Method: Preincubaton) “inactive; negative”; (Test System: Ames Salmonella typhimurium, Strain/Indicator: TA100, Metabolic Activation: None, Method: Preincubaton) “active; positive”. The mutagenic call runs as follows: (Test System: Ames Salmonella typhimurium, Strain/Indicator: TA100, Metabolic Activation: Rat, Liver, S9, Sodium phenobarbital and 5,6-benzoflavone (10%), Method: Preincubaton) “active; positive”; (Test System: Ames Salmonella typhimurium, Strain/Indicator: TA1535, Metabolic Activation: None, Method: Preincubaton) “inactive; negative”; (Test System: Ames Salmonella typhimurium, Strain/Indicator: TA1535, Metabolic Activation: Rat, Liver, S9, Sodium phenobarbital and 5,6-benzoflavone (10%), Method: Preincubaton) “inactive; negative”; (Test System: Ames Salmonella typhimurium, Strain/Indicator: TA1537, Metabolic Activation: None, Method: Preincubaton) “inactive; negative”; (Test System: Ames Salmonella typhimurium, Strain/Indicator: TA1537, Metabolic Activation: Rat, Liver, S9, Sodium phenobarbital and 5,6-benzoflavone (10%), Method: Preincubaton) “inactive; negative”; (Test System: E. coli, Strain/Indicator: WP2uvrA/pKM101, Metabolic Activation: None, Method: Preincubaton) “inactive; negative”. For the same compound, the mutagenic call (Test System: E. coli, Strain/Indicator: WP2uvrA/pKM101, Metabolic Activation: Rat, Liver, S9, Sodium phenobarbital and 5,6-benzoflavone (10%), Method: Preincubaton) is “inactive; negative”.
In the case of `O=C1c2cccc(O)c2C(=O)c2cccc(O)c21`, the mutagenic call is “active; positive” under setting [1]; “active; positive” (Test System: AMES SALMONELLA TYPHIMURIUM, Strain/Indicator: TA98, Metabolic Activation: RAT, LIVER, S-9, AROCLOR 1254, Method: STANDARD PLATE); “inactive; negative” (Test System: AMES SALMONELLA TYPHIMURIUM, Strain/Indicator: TA100, Metabolic Activation: RAT, LIVER, S-9, AROCLOR 1254, Method: STANDARD PLATE); “inactive; negative” (Test System: AMES SALMONELLA TYPHIMURIUM, Strain/Indicator: TA1535, Metabolic Activation: NONE, Method: STANDARD PLATE); “inactive; negative” (Test System: AMES SALMONELLA TYPHIMURIUM, Strain/Indicator: TA1535, Metabolic Activation: RAT, LIVER, S-9, AROCLOR 1254, Method: STANDARD PLATE); “active; positive” (Test System: AMES SALMONELLA TYPHIMURIUM, Strain/Indicator: TA1537, Metabolic Activation: NONE, Method: STANDARD PLATE). The mutagenic call is “active; positive” (Test System: AMES SALMONELLA TYPHIMURIUM, Strain/Indicator: TA1537, Metabolic Activation: RAT, LIVER, S-9, AROCLOR 1254, Method: STANDARD PLATE); “active; positive” (Test System: AMES SALMONELLA TYPHIMURIUM, Strain/Indicator: TA1537, Metabolic Activation: RAT, LIVER, S-9, Method: PREINCUBATION); “active; positive” (Test System: AMES SALMONELLA TYPHIMURIUM, Strain/Indicator: TA1538, Metabolic Activation: NONE, Method: STANDARD PLATE); “inactive; negative” (Test System: AMES SALMONELLA TYPHIMURIUM, Strain/Indicator: TA1978, Metabolic Activation: NONE, Method: STANDARD PLATE); “inactive; negative” (Test System: AMES SALMONELLA TYPHIMURIUM, Strain/Indicator: TA1978, Metabolic Activation: RAT, LIVER, S-9, AROCLOR 1254, Method: STANDARD PLATE); “active; positive” (Test System: AMES SALMONELLA TYPHIMURIUM, Strain/Indicator: TA2637, Metabolic Activation: RAT, LIVER, S-9, 5,6-BENZOFLAVONE AND/OR SODIUM PHENOBARBITAL, Method: PREINCUBATION). The mutagenic call (Test System: AMES SALMONELLA TYPHIMURIUM, Strain/Indicator: TA2637, Metabolic Activation: RAT, LIVER, S-105, 5,6-BENZOFLAVONE AND/OR SODIUM PHENOBARBITAL, Method: PREINCUBATION) is “inactive; negative”.
For the compound `C[C@@H]1Cc2ccc(C(=O)N[C@@H](Cc3ccccc3)C(=O)O)c(O)c2C(=O)O1`, the mutagenic call was “inactive; negative” (End Point: IN VIVO CHROMOSOMAL ABERRATIONS, Test System: SPLENOCYTES, Species: RAT, Strain/Sex: FISCHER 344/MALE, Route: ORAL (GAVAGE)); “inactive; negative” (Test System: AMES SALMONELLA TYPHIMURIUM, Strain/Indicator: TA102, Metabolic Activation: NONE, Method: STANDARD PLATE); “inactive; negative” (Test System: AMES SALMONELLA TYPHIMURIUM, Strain/Indicator: TA102, Metabolic Activation: RAT, LIVER, S-9, AROCLOR 1254, Method: STANDARD PLATE).
